Assay results from ChEMBL document CHEMBL5537172 (J Med Chem, 2024).
Activity calls are given as the source filed them. The rule behind the calls is not given here.

Assays:
[1] = Half-life in dog at 0.3 mg/kg, iv measured upto 24 hrs by LC-MS/MS analysis; type: ADME, organism-based, Canis lupus familiaris; conditions: in vivo
92-1 [2] = assay: Antitumor activity against human 92-1 cells xenografted in po dosed mouse assessed as tumor suppression administered twice daily; type: functional, organism-based; conditions: dose lower […], dose upper 75.0 mg/kg
[3] = Tmax in dog at 3 mg/kg, po measured upto 24 hrs by LC-MS/MS analysis; type: ADME, organism-based, Canis lupus familiaris; conditions: in vivo
[4] = Clearance in rat at 1 mg/kg, iv measured upto 24 hrs by LC-MS/MS analysis; type: ADME, organism-based; conditions: in vivo
[5] = Volume of distribution at steady state in rat at 1 mg/kg, iv measured upto 24 hrs by LC-MS/MS analysis; type: ADME, organism-based; conditions: in vivo, read-out: Vdss
[6] = Oral bioavailability in mouse at 10 mg/kg measured upto 24 hrs by LC-MS/MS analysis; type: ADME, organism-based; conditions: in vivo
SK-MEL-28 = assay: cells; conditions: Homo sapiens
Mus musculus = assay: In vivo inhibition of PKCdelta in mouse xenografted with human 92-1 cells assessed as reduction in phosphorylated levels at 15 to 72 mg/kg, po; type: functional, organism-based; conditions: dose lower […], dose upper […]
[7] = target: Protein kinase C gamma type (Homo sapiens, UniProt P05129); assay: Inhibition of PKCgamma (unknown origin)
[8] = target: T1, Protein kinase C beta type (Homo sapiens, UniProt P05771); assay: Inhibition of PKCbeta2 (unknown origin)
[9] = Clearance in mouse at 1 mg/kg, iv measured upto 24 hrs by LC-MS/MS analysis; type: ADME, organism-based; conditions: in vivo
[10] = Cmax in dog at 3 mg/kg, po measured upto 24 hrs by LC-MS/MS analysis; type: ADME, organism-based, Canis lupus familiaris; conditions: in vivo
[11] = AUCinfinity in mouse at 1 mg/kg, iv measured upto 24 hrs by LC-MS/MS analysis; type: ADME, organism-based; conditions: in vivo
[12] = target: Protein kinase C delta type (Homo sapiens, UniProt Q05655); assay: Inhibition of PKCdelta (unknown origin)
[13] = Toxicity in mouse xenografted with human 92-1 cells assessed as body weight loss at 75 to 150 mg/kg, po bid; type: organism-based; conditions: in vivo, dose 75-150 mg/kg
[14] = AUCinfinity in rat at 1 mg/kg, iv measured upto 24 hrs by LC-MS/MS analysis; type: ADME, organism-based; conditions: in vivo
cells = conditions: Homo sapiens, 92-1, 72 h
[15] = Tmax in mouse at 10 mg/kg, po measured upto 24 hrs by LC-MS/MS analysis; type: ADME, organism-based; conditions: in vivo
[16] = AUCinfinity in dog at 0.3 mg/kg, iv measured upto 24 hrs by LC-MS/MS analysis; type: ADME, organism-based, Canis lupus familiaris; conditions: in vivo
[17] = Half-life in rat at 1 mg/kg, iv measured upto 24 hrs by LC-MS/MS analysis; type: ADME, organism-based; conditions: in vivo
[18] = target: 5-hydroxytryptamine receptor 2B (Homo sapiens, UniProt P41595); assay: Agonist activity at 5HT2B (unknown origin); type: toxicity
[19] = target: T2, Protein kinase C epsilon type (Homo sapiens, UniProt Q02156); assay: Inhibition of PKCepsilon (unknown origin)
T2 sequence (Q02156 whole entry): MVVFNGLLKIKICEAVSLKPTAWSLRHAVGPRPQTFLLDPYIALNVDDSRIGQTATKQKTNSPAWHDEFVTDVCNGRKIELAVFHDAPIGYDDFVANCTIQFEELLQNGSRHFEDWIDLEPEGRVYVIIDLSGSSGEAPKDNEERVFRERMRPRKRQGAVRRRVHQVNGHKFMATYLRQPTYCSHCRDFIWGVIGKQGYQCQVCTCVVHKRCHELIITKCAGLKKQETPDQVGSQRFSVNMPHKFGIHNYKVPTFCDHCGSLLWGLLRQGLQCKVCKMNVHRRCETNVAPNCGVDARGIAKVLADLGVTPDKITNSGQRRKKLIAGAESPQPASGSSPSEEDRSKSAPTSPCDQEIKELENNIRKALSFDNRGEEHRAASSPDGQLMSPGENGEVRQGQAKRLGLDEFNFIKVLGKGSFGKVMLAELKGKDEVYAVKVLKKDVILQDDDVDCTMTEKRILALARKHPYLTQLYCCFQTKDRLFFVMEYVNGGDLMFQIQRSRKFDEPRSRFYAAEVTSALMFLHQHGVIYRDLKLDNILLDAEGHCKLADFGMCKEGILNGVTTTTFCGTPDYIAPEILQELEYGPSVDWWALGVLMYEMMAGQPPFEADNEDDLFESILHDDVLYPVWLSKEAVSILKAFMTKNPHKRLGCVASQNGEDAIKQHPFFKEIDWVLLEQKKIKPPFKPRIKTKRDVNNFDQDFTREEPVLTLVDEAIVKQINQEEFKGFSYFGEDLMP

[20] = target: T1, Protein kinase C beta type; assay: Inhibition of PKCbeta1 (unknown origin)
[21] = Volume of distribution at steady state in dog at 0.3 mg/kg, iv measured upto 24 hrs by LC-MS/MS analysis; type: ADME, organism-based, Canis lupus familiaris; conditions: in vivo, read-out: Vdss
92-1 [22] = assay: Antitumor activity against human 92-1 cells xenografted in mouse assessed as tumor suppression at 75 to 150 mg/kg, po administered twice daily; type: functional, organism-based; conditions: dose lower 75.0 mg/kg, dose upper […]
[23] = AUCinfinity in mouse at 10 mg/kg, po measured upto 24 hrs by LC-MS/MS analysis; type: ADME, organism-based; conditions: in vivo
[24] = Volume of distribution at steady state in mouse at 1 mg/kg, iv measured upto 24 hrs by LC-MS/MS analysis; type: ADME, organism-based; conditions: in vivo, read-out: Vdss
[25] = Cmax in mouse at 10 mg/kg, po measured upto 24 hrs by LC-MS/MS analysis; type: ADME, organism-based; conditions: in vivo
[26] = Toxicity in mouse xenografted with human 92-1 cells assessed as body weight loss at 15 to 150 mg/kg, po bid; type: organism-based; conditions: in vivo, dose 15-150 mg/kg
[27] = target: Protein kinase C eta type (Homo sapiens, UniProt P24723); assay: Inhibition of PKCeta (unknown origin)
[28] = Tmax in rat at 3 mg/kg, po measured upto 24 hrs by LC-MS/MS analysis; type: ADME, organism-based; conditions: in vivo
92-1 [29] = assay: Antitumor activity against human 92-1 cells xenografted in mouse assessed as tumor suppression at 75 mg/kg, po administered twice daily measured after compound withdrawal; type: functional, organism-based
[30] = AUCinfinity in dog at 3 mg/kg, po measured upto 24 hrs by LC-MS/MS analysis; type: ADME, organism-based, Canis lupus familiaris; conditions: in vivo
[31] = Oral bioavailability in dog at 3 mg/kg measured upto 24 hrs by LC-MS/MS analysis; type: ADME, organism-based, Canis lupus familiaris; conditions: in vivo
[32] = Half life in mouse at 1 mg/kg, iv measured upto 24 hrs by LC-MS/MS analysis; type: ADME, organism-based; conditions: in vivo
[33] = Cmax in rat at 3 mg/kg, po measured upto 24 hrs by LC-MS/MS analysis; type: ADME, organism-based; conditions: in vivo
[34] = Dissociation constant, pKa of compound; type: physicochemical
[35] = AUCinfinity in rat at 3 mg/kg, po measured upto 24 hrs by LC-MS/MS analysis; type: ADME, organism-based; conditions: in vivo
[36] = Oral bioavailability in rat at 3 mg/kg measured upto 24 hrs by LC-MS/MS analysis; type: ADME, organism-based; conditions: in vivo
[37] = Clearance in dog at 0.3 mg/kg, iv measured upto 24 hrs by LC-MS/MS analysis; type: ADME, organism-based, Canis lupus familiaris; conditions: in vivo

T1 sequence (P05771 whole entry): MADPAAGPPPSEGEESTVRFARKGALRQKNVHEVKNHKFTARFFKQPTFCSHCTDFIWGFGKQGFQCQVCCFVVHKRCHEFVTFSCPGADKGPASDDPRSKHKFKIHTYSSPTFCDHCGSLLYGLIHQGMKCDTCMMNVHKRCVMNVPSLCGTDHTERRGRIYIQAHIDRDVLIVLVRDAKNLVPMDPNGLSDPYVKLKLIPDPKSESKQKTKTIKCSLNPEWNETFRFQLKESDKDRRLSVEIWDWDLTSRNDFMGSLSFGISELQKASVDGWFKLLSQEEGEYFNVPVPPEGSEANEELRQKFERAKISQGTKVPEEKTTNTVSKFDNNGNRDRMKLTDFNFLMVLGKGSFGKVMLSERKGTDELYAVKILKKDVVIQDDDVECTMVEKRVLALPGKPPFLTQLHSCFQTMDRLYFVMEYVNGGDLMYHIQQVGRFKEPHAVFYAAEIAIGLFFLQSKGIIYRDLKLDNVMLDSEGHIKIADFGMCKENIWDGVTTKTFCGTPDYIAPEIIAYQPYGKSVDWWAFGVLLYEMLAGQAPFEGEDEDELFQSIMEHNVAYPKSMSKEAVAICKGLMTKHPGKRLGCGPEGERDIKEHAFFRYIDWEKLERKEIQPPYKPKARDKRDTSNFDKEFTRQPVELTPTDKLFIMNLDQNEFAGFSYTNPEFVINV
Chain of Protein kinase C delta type (Q05655 whole entry): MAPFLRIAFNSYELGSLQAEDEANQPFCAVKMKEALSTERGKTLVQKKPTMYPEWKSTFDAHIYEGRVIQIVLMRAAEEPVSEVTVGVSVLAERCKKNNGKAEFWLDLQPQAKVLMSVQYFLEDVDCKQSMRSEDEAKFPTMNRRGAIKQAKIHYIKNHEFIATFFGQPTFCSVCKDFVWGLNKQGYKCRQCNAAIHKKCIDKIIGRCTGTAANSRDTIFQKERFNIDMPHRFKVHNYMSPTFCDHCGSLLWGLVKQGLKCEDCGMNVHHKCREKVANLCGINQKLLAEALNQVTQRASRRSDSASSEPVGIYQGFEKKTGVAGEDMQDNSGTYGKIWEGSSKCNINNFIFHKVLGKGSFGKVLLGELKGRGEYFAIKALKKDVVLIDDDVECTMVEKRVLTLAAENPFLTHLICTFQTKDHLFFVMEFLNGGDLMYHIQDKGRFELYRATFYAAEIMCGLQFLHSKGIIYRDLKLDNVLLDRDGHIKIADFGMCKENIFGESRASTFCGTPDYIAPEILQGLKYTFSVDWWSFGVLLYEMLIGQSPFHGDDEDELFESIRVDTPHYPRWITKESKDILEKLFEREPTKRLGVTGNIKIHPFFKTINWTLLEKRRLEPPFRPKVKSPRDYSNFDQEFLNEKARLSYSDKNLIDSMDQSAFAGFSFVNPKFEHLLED
Chain of 5-hydroxytryptamine receptor 2B (P41595 whole entry): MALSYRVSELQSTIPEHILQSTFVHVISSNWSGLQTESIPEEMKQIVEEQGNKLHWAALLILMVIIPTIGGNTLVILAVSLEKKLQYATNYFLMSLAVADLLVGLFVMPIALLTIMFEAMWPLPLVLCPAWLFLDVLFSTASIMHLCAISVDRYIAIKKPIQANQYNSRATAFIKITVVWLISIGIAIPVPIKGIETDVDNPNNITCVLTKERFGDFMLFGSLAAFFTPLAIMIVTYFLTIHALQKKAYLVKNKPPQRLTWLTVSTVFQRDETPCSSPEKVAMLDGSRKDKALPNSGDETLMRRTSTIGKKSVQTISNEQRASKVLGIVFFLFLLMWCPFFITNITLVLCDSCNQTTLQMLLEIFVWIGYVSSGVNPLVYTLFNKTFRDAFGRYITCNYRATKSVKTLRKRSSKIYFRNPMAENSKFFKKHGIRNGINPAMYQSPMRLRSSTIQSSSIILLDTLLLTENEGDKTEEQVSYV
Chain of Protein kinase C eta type (P24723 whole entry): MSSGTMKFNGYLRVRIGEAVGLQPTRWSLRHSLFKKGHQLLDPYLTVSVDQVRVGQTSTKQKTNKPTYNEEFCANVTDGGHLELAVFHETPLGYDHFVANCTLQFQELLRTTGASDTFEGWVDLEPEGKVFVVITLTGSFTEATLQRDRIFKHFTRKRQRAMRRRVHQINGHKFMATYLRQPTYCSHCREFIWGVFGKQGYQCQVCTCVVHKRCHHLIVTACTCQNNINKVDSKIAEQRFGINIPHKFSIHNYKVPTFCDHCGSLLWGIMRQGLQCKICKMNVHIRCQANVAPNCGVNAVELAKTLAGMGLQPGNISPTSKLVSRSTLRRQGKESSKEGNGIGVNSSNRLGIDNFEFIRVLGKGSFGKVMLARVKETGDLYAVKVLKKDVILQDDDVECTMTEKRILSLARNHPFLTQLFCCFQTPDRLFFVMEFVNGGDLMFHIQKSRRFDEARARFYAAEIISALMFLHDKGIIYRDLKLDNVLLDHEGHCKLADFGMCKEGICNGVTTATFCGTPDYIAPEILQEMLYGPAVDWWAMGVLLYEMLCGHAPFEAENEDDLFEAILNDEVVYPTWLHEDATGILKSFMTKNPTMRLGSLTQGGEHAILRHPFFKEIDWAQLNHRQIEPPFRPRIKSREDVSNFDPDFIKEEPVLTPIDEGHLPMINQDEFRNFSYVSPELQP

## CC1(N)CCN(c2cccnc2NC(=O)c2nc(-c3ncccc3C(F)(F)F)cnc2N)CC1 [DAROVASERTIB]
[1]
  half-life: 4.4 h
92-1 [2]
  Activity: Dose-Dependent Effect
[3]
  Tmax: 0.5 h
[4]
  clearance: 24 mL/min/kg
[5]
  Vd: 3.4 L/kg
[6]
  bioavailability: 17%
SK-MEL-28
  IC50: > 10000 nM
Mus musculus
  Activity: Active
[7]
  IC50: 109 nM
[8]
  IC50: 58 nM
[9]
  clearance: 26 mL/min/kg
[10]
  Cmax: 6120 nM
[11]
  AUC(0-inf): 1.36 µM·h
[12]
  IC50: 6.9 nM
[13]
  Activity: Non-Toxic
[14]
  AUC(0-inf): 1.45 µM·h
cells
  EC50: 170 nM
[15]
  Tmax: 2 h
[16]
  AUC(0-inf): 2.59 µM·h
[17]
  half-life: 5.7 h
[18]
  EC50: > 30000 nM
[19]
  IC50: 2.9 nM
[20]
  IC50: 66 nM
[21]
  Vd: 1.4 L/kg
92-1 [22]
  Activity: Active
[23]
  AUC(0-inf): 2.17 µM·h
[24]
  Vd: 1.6 L/kg
[25]
  Cmax: 667 nM
[26]
  Activity: Non-Toxic
[27]
  IC50: 13.3 nM
[28]
  Tmax: 0.3 h
92-1 [29]
  Activity: inactive
[30]
  AUC(0-inf): 21.4 µM·h
[31]
  bioavailability: 76%
[32]
  half-life: 1.1 h
[33]
  Cmax: 509 nM
[34]
  pKa: 9
[35]
  AUC(0-inf): 2.39 µM·h
[36]
  bioavailability: 55%
[37]
  clearance: 5 mL/min/kg
